Laboratory results from paper PMC9686928, “10-mer and 9-mer WALK Peptides with Both Antibacterial and Anti-Inflammatory Activities” (Antibiotics, 2022).
In brackets after ≈: the same amount, converted by molar mass. Where no end group is shown, it is not given here.

Assays:
human red blood cells = human red blood cells 10% v/v in PBS, 1 h; for MHC, minimal hemolytic concentration: lowest concentration showing 5% or more hemolysis, 1–64 μg/mL, A550, relative to 0.2% Triton X-100, triplicate
Procedure: Briefly, suspensions of human red blood cells (10% v/v in PBS) were treated for 1 h with various concentrations (1–64 μg/mL, two-fold serial dilutions) of peptides, followed by measurement of the absorbance of the supernatant at 550 nm. The relative attenuation was determined as the percentage of hemolysis compared to that of the blood suspension treated with 0.2% Triton X-100. The tests were performed in triplicate, and the average values of three independent measurements were recorded.

[1] = system: two Gram-positive and two Gram-negative bacterial strains; assay: Antimicrobial assay, MICs over the four strains (geometric mean); assay type: cell-based, B. subtilis, S. aureus, E. coli, S. dysentariae; details: geometric mean of the MICs against the four strains
Procedure: (§1) The antimicrobial activity of each peptide was assessed against four strains, including two Gram-positive (Bacillus subtilis ATCC 6633 and Staphylococcus aureus ATCC 6538p) and two Gram-negative bacteria (Escherichia coli ATCC 25922 and Shigella dysentariae ATCC 9752) cultured in Luria-Bertani broth media. Antibacterial susceptibility was determined as the MIC value, which was measured using the standard broth microdilution method as described previously. […] Two conventional antibiotics, ampicillin and kanamycin, were used as controls to confirm antibiotic susceptibility. The tests were performed in triplicate, and the MIC values that were reproduced twice or thrice in the three independent measurements were employed to calculate the GM value.

[2] = system: Escherichia coli ATCC 25922; assay: microbe, parasite or virus in culture; assay type: cell-based; details: Gram-negative, broth microdilution, Luria-Bertani broth, 1–64 μg/mL two-fold serial dilutions, triplicate
Procedure: as §1

[3] = system: Staphylococcus aureus ATCC 6538p; assay: microbe, parasite or virus in culture; assay type: cell-based; details: Gram-positive, broth microdilution, Luria-Bertani broth, 1–64 μg/mL two-fold serial dilutions, triplicate
Procedure: as §1

[4] = system: Bacillus subtilis ATCC 6633; assay: microbe, parasite or virus in culture; assay type: cell-based; details: Gram-positive, broth microdilution, Luria-Bertani broth, 1–64 μg/mL two-fold serial dilutions, lowest concentration that completely inhibited growth, triplicate
Procedure: as §1

[5] = system: Shigella dysentariae ATCC 9752; assay: microbe, parasite or virus in culture; assay type: cell-based; details: Gram-negative, broth microdilution, Luria-Bertani broth, 1–64 μg/mL two-fold serial dilutions, triplicate
Procedure: as §1

Compound | MHC, minimal hemolytic concentration (human red blood cells) [µg/mL] | GM, geometric mean of MICs [1] [µg/mL] | MIC, E. coli [2] [µg/mL] | MIC, S. aureus [3] [µg/mL] | MIC, B. subtilis [4] [µg/mL] | MIC, S. dysentariae [5] [µg/mL] | percentage hemolysis (human red blood cells; at 64 μg/mL, relative to 0.2% Triton X-100, average of three measurements) [%] | geometric mean MIC ([1]; read-out: GM, geometric mean of MICs) [µg/mL] | MIC ([2]; Escherichia coli, ATCC25922) [µg/mL] | MIC ([3]; Staphylococcus aureus, ATCC6538P, read-out: MIC, S. aureus) [µg/mL] | MIC ([4]; Bacillus subtilis, ATCC6633, read-out: MIC, B. subtilis) [µg/mL] | MIC ([5]; Shigella, ATCC9752, read-out: MIC, S. dysentariae) [µg/mL]
WLKKLLKWLK-NH2 [WALK244.08] | 8 | ≤2.0 | 2 | ≤1 | 2 | 4 |  |  |  |  |  | 
KKLLKWLLKW-NH2 [WALK244.06] | 32 | 6.3 | 16 | 3 | 2 | 16 |  |  |  |  |  | 
LKWLLKWLK-NH2 [WALK243.03] | 32 | 6.7 | 8 | 4 | 4 | 16 |  |  |  |  |  | 
WLKKWLKKLL-NH2 [WALK244.01] | 16 | ≤1.7 | 2 | 2 | ≤1 | 2 |  |  |  |  |  | 
LKKWLKWLL-NH2 [WALK243.07] | 16 | 2.4 | 2 | 2 | 2 | 4 |  |  |  |  |  | 
KWLLKLLKW-NH2 [WALK243.09] | 64 | 6.7 | 8 | 4 | 4 | 16 |  |  |  |  |  | 
LKWLLKWLKK-NH2 [WALK244.03] | 64 | 11.3 | 8 | 8 | 8 | 32 |  |  |  |  |  | 
WLLKWLKKL-NH2 [WALK243.01] | 32 | 4.8 | 4 | 4 | 4 | 8 |  |  |  |  |  | 
WLKKLLKWL-NH2 [WALK243.08] | 8 | 2.0 | 2 | 2 | 2 | 2 |  |  |  |  |  | 
KWLKKLLKWL-NH2 [WALK244.09] | 8 | ≤1.7 | 2 | 2 | ≤1 | 2 | 80.7 |  |  |  |  | 
CC1(C)S[C@@H]2[C@H](NC(=O)[C@H](N)c3ccccc3)C(=O)N2[C@H]1C(=O)O [Ampicillin, ampicillin, reference compound] |  |  |  |  |  |  |  | ≤ 1 | ≤ 1 | ≤ 1 | ≤ 1 | ≤ 1
NC[C@H]1O[C@H](O[C@H]2[C@H](O)[C@@H](O[C@H]3O[C@H](CO)[C@@H](O)[C@H](N)[C@H]3O)[C@H](N)C[C@@H]2N)[C@H](O)[C@@H](O)[C@@H]1O [Kanamycin, kanamycin, reference compound] |  | 4.8 | 4 (≈ 8.26 µM) | 4 (≈ 8.26 µM) | 4 (≈ 8.26 µM) | 8 (≈ 16.5 µM) |  |  |  |  |  | 
LKWLKKLLKW-NH2 [WALK244.10] | 32 | 4.0 | 8 | 2 | 2 | 8 |  |  |  |  |  | 
